Literature values in patent US9446036B2, “Compositions of a polyorthoester and an aprotic solvent” (Heron Therapeutics, Inc., priority 2013, dated 2016).

Conditions: room temperature (20-25° C.)
In the case of `CC1COC(=O)O1` (centres unmarked) [4-methyl-1,3-diololan-2-one], the “Water Miscibility” value is listed as “water miscible”.
In the case of `CCN1CCCC1=O` [n-ethyl-2-pyrrolidone], the “Water Miscibility” value is listed as “water miscible”.
In the case of `CCOC(=O)C(C)O` (centres unmarked) [ethyl lactate], the “Water Miscibility” value is listed as “water miscible”.
In the case of `CN1CCCC1=O` [N-methyl-2-pyrrolidone (NMP), N-methyl-2-pyrrolidone], the “Water Miscibility” value is given as “water miscible”.
In the case of `COC(=O)C(C)O` (centres unmarked) [methyl lactate], the “Water Miscibility” value is given as “water miscible”.
For `CCCCCCCC/C=C\CCCCCCCC(=O)OCC` [ethyl oleate], the “Water Miscibility” value is given as “poorly miscible”.
In the case of `CCOC(C)=O` [ethyl acetate], the “Water Miscibility” value is listed as “partially miscible”.
For `O=C1CCCN1C1CCCCC1` [N-cyclohexyl-2-pyrrolidone], the “Water Miscibility” value is listed as “poorly miscible”.
For `COC(C)=O` [methyl acetate], the “Water Miscibility” value is listed as “water miscible”.
In the case of `C[S+](C)[O-]` [dimethyl sulfoxide], the “Water Miscibility” value is listed as “water miscible”.
In the case of `C1CCOC1` [tetrahydrofuran], the “Water Miscibility” value is listed as “water miscible”.
For `O=C(OCc1ccccc1)c1ccccc1` [benzyl benzoate], the “Water Miscibility” value is given as “poorly miscible”.
In the case of `CCCCCCCCCCCCCC(=O)OC(C)C` [isopropyl myristate], the “Water Miscibility” value is listed as “poorly miscible”.
For `O=C1CCCCCO1` [ester-caprolactone], the “Water Miscibility” value is given as “water miscible”.
